# Test system: NOMO1
# Experiment: cell viability relative to DMSO control; higher = less cytotoxic
# Conditions: 48 h
# Summary of the method: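 Leukemia cells (NOMO1 or SEM, 500 cells/well; P12-Ichikawa, 1000 cells/well) were seeded in 5 μl in 1536-well plates after at least four passages of adaptation to each medium. They received library compounds in DMSO by pin dosing, 11 threefold points from 47 μM to 0.79 nM. Luminescence with CellTiter-Glo One was read after 48 h at 37°C. Viability is stated per plate relative to DMSO wells, with cell-free wells as background.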
# [1] = HPLM + 10% dialyzed FBS, 0.000781 µM
# [2] = HPLM + 10% dialyzed FBS, 0.00234 µM
# [3] = HPLM + 10% dialyzed FBS, 0.00702 µM
# [4] = HPLM + 10% dialyzed FBS, 0.0211 µM
# [5] = HPLM + 10% dialyzed FBS, 0.0632 µM
# [6] = HPLM + 10% dialyzed FBS, 0.19 µM
# [7] = HPLM + 10% dialyzed FBS, 0.569 µM
# [8] = HPLM + 10% dialyzed FBS, 1.71 µM
# [9] = HPLM + 10% dialyzed FBS, 5.12 µM
# [10] = HPLM + 10% dialyzed FBS, 15.4 µM
# [11] = HPLM + 10% dialyzed FBS, 46.1 µM
# [12] = RPMI 5 mM glucose + 10% FBS, 0.000781 µM
# [13] = RPMI 5 mM glucose + 10% FBS, 0.00234 µM
# [14] = RPMI 5 mM glucose + 10% FBS, 0.00702 µM
# [15] = RPMI 5 mM glucose + 10% FBS, 0.0211 µM
# [16] = RPMI 5 mM glucose + 10% FBS, 0.0632 µM
# [17] = RPMI 5 mM glucose + 10% FBS, 0.19 µM
# [18] = RPMI 5 mM glucose + 10% FBS, 0.569 µM
# [19] = RPMI 5 mM glucose + 10% FBS, 1.71 µM
# [20] = RPMI 5 mM glucose + 10% FBS, 5.12 µM
# [21] = RPMI 5 mM glucose + 10% FBS, 15.4 µM
# [22] = RPMI 5 mM glucose + 10% FBS, 46.1 µM
# [23] = RPMI 5 mM glucose + 10% dialyzed FBS, 0.000781 µM
# [24] = RPMI 5 mM glucose + 10% dialyzed FBS, 0.00234 µM
# [25] = RPMI 5 mM glucose + 10% dialyzed FBS, 0.00702 µM
# [26] = RPMI 5 mM glucose + 10% dialyzed FBS, 0.0211 µM
# [27] = RPMI 5 mM glucose + 10% dialyzed FBS, 0.0632 µM
# [28] = RPMI 5 mM glucose + 10% dialyzed FBS, 0.19 µM
# [29] = RPMI 5 mM glucose + 10% dialyzed FBS, 0.569 µM
# [30] = RPMI 5 mM glucose + 10% dialyzed FBS, 1.71 µM
# [31] = RPMI 5 mM glucose + 10% dialyzed FBS, 5.12 µM
# [32] = RPMI 5 mM glucose + 10% dialyzed FBS, 15.4 µM
# [33] = RPMI 5 mM glucose + 10% dialyzed FBS, 46.1 µM
SMILES,cell viability [1],cell viability [2],cell viability [3],cell viability [4],cell viability [5],cell viability [6],cell viability [7],cell viability [8],cell viability [9],cell viability [10],cell viability [11],cell viability [12],cell viability [13],cell viability [14],cell viability [15],cell viability [16],cell viability [17],cell viability [18],cell viability [19],cell viability [20],cell viability [21],cell viability [22],cell viability [23],cell viability [24],cell viability [25],cell viability [26],cell viability [27],cell viability [28],cell viability [29],cell viability [30],cell viability [31],cell viability [32],cell viability [33]
C[S+](=O)([O-])N1CCc2c(-c3cnc(N)nc3)nc(N3CCOCC3)nc21,105%,102%,112%,118%,104%,107%,86.6%,76.4%,77.9%,76.2%,74.4%,107%,104%,99.3%,110%,102%,99.5%,101%,88.9%,95%,81.9%,74%,99%,103%,99.6%,97.7%,93.6%,96.9%,77.3%,69.4%,73.7%,69.7%,56.8%
COc1ncc(-c2ccc3nccc(-c4ccnnc4)c3c2)cc1N[S+](=O)([O-])c1ccc(F)cc1F,95.5%,81.2%,76.8%,89.6%,75.1%,66.3%,60.5%,45.8%,41.7%,31.9%,29.7%,121%,96.1%,92.3%,79.8%,76%,72.8%,69.7%,43.1%,29.9%,27.8%,21%,104%,92.1%,86.2%,76.6%,72.9%,62.6%,64%,44.7%,38.1%,29.7%,19.9%
COC1=CC=C(C=C1)C/2=C/OC3=C(C(=CC(=C3)O)O)C2=O,111%,124%,133%,114%,130%,123%,133%,122%,116%,114%,60.5%,,,,,,,,,,,,111%,116%,120%,130%,156%,144%,144%,140%,140%,143%,106%
CCC(C)(Oc1ccc(C2(c3ccc(OC(C)(CC)C(=O)O)cc3)CCCCC2)cc1)C(=O)O (stereo not drawn),89.3%,107%,89.4%,108%,118%,101%,93.8%,124%,102%,85.1%,99.4%,104%,101%,95.5%,99.2%,102%,89.4%,97.6%,97.7%,92.8%,84%,84.3%,100%,94.4%,111%,96.1%,99.8%,94%,107%,103%,87%,93.9%,101%
Cc1ccc([S+](=O)([O-])N[C@@H](Cc2ccccc2)C(=O)CCl)cc1,90.2%,100%,119%,119%,87.3%,112%,99.1%,107%,106%,101%,47.6%,91.8%,89.4%,96%,96.9%,97.9%,91.4%,90.3%,81%,95.1%,90.7%,71.1%,88.8%,99.6%,94.6%,94.6%,100%,85.2%,99.4%,108%,97.7%,85.1%,73.6%
CC(C)C[C@H](NC(=O)[C@H](CCc1ccccc1)NC(=O)CN1CCOCC1)C(=O)N[C@@H](Cc1ccccc1)C(=O)N[C@@H](CC(C)C)C(=O)[C@@]1(C)CO1,94.7%,95.3%,103%,99.4%,7.57%,8.63%,5.74%,4.23%,1.47%,0.357%,0.4%,77.8%,88.9%,90%,83.9%,6.13%,6.37%,4.68%,3.7%,2.13%,-0.195%,-0.384%,90.9%,93.3%,98.5%,92%,8.53%,8.08%,5.45%,3.98%,2.7%,0.526%,-0.204%
Cc1cc(C(C)(C)C)c(O)c(C)c1CC1=NCCN1,90.1%,99.5%,103%,103%,101%,108%,105%,107%,83.8%,55%,43.4%,91.6%,97.3%,99.1%,90%,86.2%,105%,90.8%,97.8%,88.9%,56.4%,43.2%,78%,85.6%,91.8%,97.4%,100%,100%,97%,93.2%,101%,61.2%,54.1%
CNc1nccc(-c2cccnc2Oc2cc(C(=O)Nc3cccc(C(F)(F)F)c3)ccc2C)n1,104%,111%,120%,135%,130%,147%,127%,117%,115%,82.7%,110%,115%,102%,112%,125%,120%,133%,130%,119%,112%,87.7%,98.2%,98%,105%,108%,116%,108%,134%,105%,125%,125%,78.2%,99.1%
